Reference: patent publication US8703961B2, “Thiazole derivatives for the treatment of diseases such as cancer” (Merck Patent GmbH, priority 2009, dated 2014)

Columns and labels:
Test in all cases: filter binding kinase assay
Assay type in all cases: biochemical
BRSK2 = target: T1, BRSK2 (Homo sapiens, UniProt Q8IWQ3); details: derived from % inhibition at 1 μM
T1 construct: purchased
T1 sequence (Q8IWQ3 1-736): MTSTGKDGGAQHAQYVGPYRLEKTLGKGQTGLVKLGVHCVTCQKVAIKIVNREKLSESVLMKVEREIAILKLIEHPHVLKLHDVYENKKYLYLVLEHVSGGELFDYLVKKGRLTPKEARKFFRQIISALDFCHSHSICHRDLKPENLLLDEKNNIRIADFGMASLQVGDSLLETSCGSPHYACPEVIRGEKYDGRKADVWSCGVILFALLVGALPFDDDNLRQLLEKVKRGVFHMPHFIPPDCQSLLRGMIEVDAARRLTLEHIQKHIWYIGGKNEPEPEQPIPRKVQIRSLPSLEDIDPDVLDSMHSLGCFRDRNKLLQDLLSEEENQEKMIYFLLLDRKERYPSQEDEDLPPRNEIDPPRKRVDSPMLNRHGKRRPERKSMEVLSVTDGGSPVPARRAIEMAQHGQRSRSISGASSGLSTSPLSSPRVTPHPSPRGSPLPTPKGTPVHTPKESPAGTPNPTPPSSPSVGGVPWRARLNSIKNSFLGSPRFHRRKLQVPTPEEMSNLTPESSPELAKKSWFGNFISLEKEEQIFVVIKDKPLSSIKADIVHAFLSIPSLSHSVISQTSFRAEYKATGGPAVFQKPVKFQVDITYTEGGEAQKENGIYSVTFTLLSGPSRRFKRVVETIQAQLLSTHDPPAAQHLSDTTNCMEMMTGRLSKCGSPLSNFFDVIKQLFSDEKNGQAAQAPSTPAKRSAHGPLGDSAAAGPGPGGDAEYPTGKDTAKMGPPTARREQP
Procedure, shortened: (§1)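 Each reaction ran at ambient temperature following a five-minute compound preincubation, was started with ATP (5, 20 or 50 […] stock, per enzyme) and stopped with acid; substrate phosphorylation was read by scintillation counting of P81 filters.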

TBK1 = target: T2, TBK1 (Homo sapiens, UniProt Q9UHD2); details: derived from % inhibition at 1 μM
T2 construct: purchased
T2 sequence (Q9UHD2 1-729): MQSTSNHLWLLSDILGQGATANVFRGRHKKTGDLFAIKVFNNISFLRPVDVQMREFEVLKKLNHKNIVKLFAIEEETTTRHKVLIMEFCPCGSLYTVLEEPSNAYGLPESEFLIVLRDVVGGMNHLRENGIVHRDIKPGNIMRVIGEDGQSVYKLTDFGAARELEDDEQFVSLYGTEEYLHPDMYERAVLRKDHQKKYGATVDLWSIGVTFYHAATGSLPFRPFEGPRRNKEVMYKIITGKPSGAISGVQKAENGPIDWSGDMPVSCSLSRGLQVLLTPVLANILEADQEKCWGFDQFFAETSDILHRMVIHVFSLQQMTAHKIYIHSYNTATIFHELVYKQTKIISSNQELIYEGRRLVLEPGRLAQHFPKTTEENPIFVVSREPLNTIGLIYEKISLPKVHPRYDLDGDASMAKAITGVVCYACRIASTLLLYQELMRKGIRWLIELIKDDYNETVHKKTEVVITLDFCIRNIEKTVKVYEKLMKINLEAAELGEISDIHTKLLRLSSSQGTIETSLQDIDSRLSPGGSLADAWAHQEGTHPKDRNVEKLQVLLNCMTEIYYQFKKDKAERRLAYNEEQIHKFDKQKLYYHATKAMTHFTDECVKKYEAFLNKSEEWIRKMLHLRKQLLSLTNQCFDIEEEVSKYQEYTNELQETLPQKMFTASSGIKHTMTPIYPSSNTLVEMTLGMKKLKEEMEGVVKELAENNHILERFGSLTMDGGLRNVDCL
Procedure, shortened: as §1

CHEK1 (CHK1) = target: T3, CHEK1 (CHK1) (Homo sapiens, UniProt O14757); details: for IC50: derived from % inhibition at 1 μM
T3 construct: purchased
T3 sequence (O14757 1-476): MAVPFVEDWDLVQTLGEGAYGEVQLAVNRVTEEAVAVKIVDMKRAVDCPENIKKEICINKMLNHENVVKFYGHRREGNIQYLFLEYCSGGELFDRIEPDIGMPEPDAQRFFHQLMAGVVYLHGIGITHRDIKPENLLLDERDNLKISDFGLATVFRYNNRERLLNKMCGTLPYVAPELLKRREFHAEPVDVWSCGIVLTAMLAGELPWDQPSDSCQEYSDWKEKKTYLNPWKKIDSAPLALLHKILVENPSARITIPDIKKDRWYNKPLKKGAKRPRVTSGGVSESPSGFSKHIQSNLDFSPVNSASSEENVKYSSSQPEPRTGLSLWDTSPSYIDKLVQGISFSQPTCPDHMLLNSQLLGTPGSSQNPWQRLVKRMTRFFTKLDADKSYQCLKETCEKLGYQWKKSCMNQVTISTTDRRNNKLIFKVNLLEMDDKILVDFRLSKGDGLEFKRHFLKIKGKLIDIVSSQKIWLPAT
Procedure, shortened: as §1

| SMILES | IC50 (BRSK2) [µM] | IC50 (TBK1) [µM] | IC50 (CHEK1 (CHK1)) [µM] | remaining activity at 1 µM (CHEK1 (CHK1); read-out: residual kinase activity CHK1) [%] |
| --- | --- | --- | --- | --- |
| c1ccc(Cc2c[nH]c3ncsc23)cc1 [Compound A7, 6-benzyl-4H-pyrrolo[2,3-d]thiazole] | > 1 | > 1 | > 1 | – |
| Nc1ncsc1C#Cc1cnc2[nH]ccc2c1 [Compound A22, 5-(1H-pyrrolo[2,3-b]pyridin-5-ylethynyl)thiazol-4-ylamine] | > 1 | > 1 | 0.01 to 1 | 40 |
| CC(C)(C)OC(=O)Nc1nc(-c2ccncc2)sc1C#CCN1CCOCC1 [Compound A25, tert-butyl[5-(3-morpholin-4-ylprop-1-ynyl)-2-pyridin-4-ylthiazol-4-yl]-carbamate] | > 1 | 10 to 100 | 10 to 100 | – |
| CC(C)(C)OC(=O)Nc1ncsc1C#CCN1C(=O)c2ccccc2C1=O [Compound A26, tert-butyl{5-[3-(1,3-dioxo-1,3-dihydroisoindol-2-yl)prop-1-ynyl]-thiazol-4-yl}carbamate] | > 1 | > 1 | 10 to 100 | – |
| Nc1ncsc1C#Cc1cccc(O)c1 [Compound A27, 3-(4-aminothiazol-5-ylethynyl)phenol] | 10 to 100 | > 1 | 10 to 100 | – |
